Test results taken from ChEMBL document CHEMBL1201862, “PubChem BioAssay data set” (2004).
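Five concentrations, 48 hours, 96-well plates. GI50 is the concentration that inhibits growth by half.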 Calls of active or inactive are those of the source. Cut-off read from the data, not from the text of the source: active = GI50 up to about 1.1 µM and inactive = higher.

What was measured:
Test in all cases: DTP human tumour cell line panel, 48 h
[1] = tested on: NCI-H23
[2] = tested on: MDA-MB-435
[3] = tested on: MOLT-4
[4] = tested on: MDA-MB-231
[5] = tested on: HL-60
[6] = tested on: A498
[7] = tested on: COLO 205
[8] = tested on: A549
[9] = tested on: SF-268
[10] = tested on: OVCAR-4
[11] = tested on: 786-0
[12] = tested on: SK-MEL-2
[13] = tested on: EKVX
[14] = tested on: SF-295
[15] = tested on: NCI-H226
[16] = tested on: UACC-62
[17] = tested on: SK-MEL-5
[18] = tested on: CCRF-CEM
[19] = tested on: UO-31
[20] = tested on: MCF7

| Compound | GI50 [1] | GI50 [2] | GI50 [3] | GI50 [4] | GI50 [5] | GI50 [6] | GI50 [7] | GI50 [8] | GI50 [9] | GI50 [10] | GI50 [11] | GI50 [12] | GI50 [13] | GI50 [14] | GI50 [15] | GI50 [16] | GI50 [17] | GI50 [18] | GI50 [19] | GI50 [20] |
| --- | --- | --- | --- | --- | --- | --- | --- | --- | --- | --- | --- | --- | --- | --- | --- | --- | --- | --- | --- | --- |
| COC1C(O)C(C)OC(O[C@@H]2C[C@H]3CC[C@@H]4[C@H](CC[C@]5(C)[C@@H](C6=CC(=O)OC6)CC[C@]45O)[C@@]3(C)[C@H](O)C2)C1O (some centres undefined) | 0.0262 µM (active) | 0.0883 µM (active) | < 0.0162 µM (active) | 0.313 µM (active) | < 0.04 µM (active) | 0.0525 µM (active) | 0.191 µM (active) | < 0.0221 µM (active) | < 0.0272 µM (active) | 0.057 µM (active) | 0.149 µM (active) | 0.114 µM (active) | < 0.0474 µM (active) | < 0.0371 µM (active) | 0.151 µM (active) | 0.142 µM (active) | < 0.0258 µM (active) | 0.0559 µM (active) | – | – |
| O=C(/C=C/c1cccs1)c1ccc(C(=O)/C=C/c2cccs2)cc1 | > 100 µM (inactive) | > 100 µM (inactive) | > 100 µM (inactive) | > 100 µM (inactive) | – | > 100 µM (inactive) | > 100 µM (inactive) | > 100 µM (inactive) | > 100 µM (inactive) | > 100 µM (inactive) | > 100 µM (inactive) | – | > 100 µM (inactive) | > 100 µM (inactive) | > 100 µM (inactive) | > 100 µM (inactive) | – | – | > 100 µM (inactive) | – |
| COc1ccc(C2=NN(C(=O)c3cccnc3)C(O)(c3cc(F)c(Cl)cc3Cl)C2)cc1OC (centres undefined) | 20.4 µM (inactive) | 15.2 µM (inactive) | 8.97 µM (inactive) | 13.9 µM (inactive) | 12.8 µM (inactive) | – | 12.3 µM (inactive) | 20.4 µM (inactive) | 17.3 µM (inactive) | 15.6 µM (inactive) | 22 µM (inactive) | 14.8 µM (inactive) | 19.6 µM (inactive) | 15.5 µM (inactive) | 12.8 µM (inactive) | – | 12.1 µM (inactive) | 11.4 µM (inactive) | 17.5 µM (inactive) | – |
| Cc1ccc(/C=C2\Cc3cccc(C)c3C2=O)c(C(=O)O)c1 | > 100 µM (inactive) | – | 48.2 µM (inactive) | 66.2 µM (inactive) | 85.7 µM (inactive) | > 100 µM (inactive) | – | 74.3 µM (inactive) | > 100 µM (inactive) | 21.1 µM (inactive) | > 100 µM (inactive) | – | > 100 µM (inactive) | > 100 µM (inactive) | > 100 µM (inactive) | – | 71.1 µM (inactive) | 36.9 µM (inactive) | 17.3 µM (inactive) | > 10 µM (inactive) |
| CN(Cc1cnc2nc(N)nc(N)c2n1)c1ccc(C(=O)NC(CCC(=O)O)C(=O)O)cc1 (centres undefined) | 0.0792 µM (active) | < 0.01 µM (active) | 0.0205 µM (active) | > 100 µM (inactive) | < 0.01 µM (active) | > 100 µM (inactive) | 0.705 µM (active) | 0.0384 µM (active) | < 0.0298 µM (active) | > 70.8 µM (inactive) | – | > 100 µM (inactive) | – | < 0.0256 µM (active) | 5.38 µM (inactive) | < 0.0136 µM (active) | 0.0661 µM (active) | – | 0.232 µM (active) | – |
| c1ccc2c(CSCc3cccc4ccccc34)cccc2c1 | > 100 µM (inactive) | > 100 µM (inactive) | 34.5 µM (inactive) | > 100 µM (inactive) | – | > 100 µM (inactive) | – | > 100 µM (inactive) | > 100 µM (inactive) | > 100 µM (inactive) | > 100 µM (inactive) | > 100 µM (inactive) | 46.8 µM (inactive) | > 100 µM (inactive) | > 100 µM (inactive) | > 100 µM (inactive) | 88.7 µM (inactive) | 3.5 µM (inactive) | > 100 µM (inactive) | – |
